Source: ChEMBL document CHEMBL1143610, “Applying linear interaction energy method for rational design of noncompetitive allosteric inhibitors of the sarco- and endoplasmic reticulum calcium-ATPase” (J Med Chem, 2005)

biological target: Sarcoplasmic/endoplasmic reticulum calcium ATPase 1 (Homo sapiens, UniProt O14983); experiment: Inhibitory potency against sarco- endoplasmic reticulum calcium-ATPase in relative to thapsigargin
Sequence (O14983 whole entry, looked up): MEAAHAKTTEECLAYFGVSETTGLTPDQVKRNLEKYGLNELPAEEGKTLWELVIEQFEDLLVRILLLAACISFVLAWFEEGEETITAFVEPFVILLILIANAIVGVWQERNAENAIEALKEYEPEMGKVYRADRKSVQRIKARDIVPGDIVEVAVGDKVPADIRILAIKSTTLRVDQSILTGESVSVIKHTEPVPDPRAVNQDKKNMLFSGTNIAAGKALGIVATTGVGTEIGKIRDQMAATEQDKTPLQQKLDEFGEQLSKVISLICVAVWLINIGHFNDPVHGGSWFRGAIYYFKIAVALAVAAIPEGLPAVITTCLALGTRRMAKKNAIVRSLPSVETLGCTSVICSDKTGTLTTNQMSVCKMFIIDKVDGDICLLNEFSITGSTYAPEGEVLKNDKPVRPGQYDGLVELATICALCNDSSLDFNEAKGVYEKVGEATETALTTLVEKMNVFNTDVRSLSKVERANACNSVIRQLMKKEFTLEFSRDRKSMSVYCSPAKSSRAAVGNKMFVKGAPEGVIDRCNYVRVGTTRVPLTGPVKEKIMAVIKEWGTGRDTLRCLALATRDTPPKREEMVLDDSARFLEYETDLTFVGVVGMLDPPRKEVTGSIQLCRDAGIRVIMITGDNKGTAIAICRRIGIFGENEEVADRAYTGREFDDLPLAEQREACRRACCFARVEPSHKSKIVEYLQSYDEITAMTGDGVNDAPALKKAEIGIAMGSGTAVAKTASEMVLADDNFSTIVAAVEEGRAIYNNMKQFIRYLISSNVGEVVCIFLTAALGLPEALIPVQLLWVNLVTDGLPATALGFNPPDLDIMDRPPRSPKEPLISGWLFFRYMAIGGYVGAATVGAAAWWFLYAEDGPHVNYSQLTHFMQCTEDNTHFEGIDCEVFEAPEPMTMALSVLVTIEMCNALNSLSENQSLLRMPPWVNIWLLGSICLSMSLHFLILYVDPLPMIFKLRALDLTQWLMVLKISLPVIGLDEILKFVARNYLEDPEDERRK

Compound | RIC50
C/C=C(/C)C(=O)O[C@H]1C(C)=C2[C@H]([C@@H]1OC(=O)CCCCCCC)[C@@](C)(OC(C)=O)C[C@H](OC(=O)CCCCCCCCCCCN)[C@@]1(O)[C@H]2O[C@H](O)[C@@]1(C)O | 0.384
C/C=C(/C)C(=O)O[C@H]1C(C)=C2[C@H]([C@@H]1OC(=O)CCCCCCC)[C@@](C)(OC(C)=O)C[C@H](OC(=O)CCC(=O)Nc1ccc(C)c(N)c1)[C@@]1(O)[C@H]2O[C@H](O)[C@@]1(C)O | 0.003
C/C=C(/C)C(=O)O[C@H]1C(C)=C2[C@H]([C@@H]1OC(=O)CCCCC)[C@@](C)(OC(C)=O)C[C@H](OC(=O)CCC)[C@@]1(O)[C@H]2OC(=O)[C@@]1(C)O | 0.98
C/C=C(/C)C(=O)O[C@H]1C(C)=C2[C@H]([C@@H]1O)[C@@](C)(O)C[C@H](OC(=O)CCC)[C@@]1(O)[C@H]2O[C@H]2OC(C)(C)O[C@]21C | 0.0002
C/C=C(/C)C(=O)O[C@H]1C(C)=C2[C@H]([C@@H]1OC(=O)CCCCCCC)[C@@](C)(OC(C)=O)C[C@H](O)[C@@]1(O)[C@H]2O[C@H](O)[C@@]1(C)O | 0.19
C/C=C(\C)C(=O)O[C@H]1C(C)=C2[C@H]([C@@H]1OC(=O)CCCCCCC)[C@@](C)(O)C[C@H](OC(=O)CCC)[C@@]1(O)[C@H]2OC(=O)[C@@]1(C)O | 0.02
C/C=C(/C)C(=O)O[C@H]1C(C)=C2[C@H]([C@@H]1OC(=O)CCCCCCC)[C@@](C)(OC(C)=O)C[C@H](OC(=O)CCC)[C@@]1(O)[C@H]2OC(=O)[C@@]1(C)O (stereo in doubt; form 1) | 1
C/C=C(/C)C(=O)O[C@H]1C(C)=C2[C@H]([C@@H]1OC(=O)CCCCCCC)[C@@](C)(OC(C)=O)C[C@H](OC(=O)CCCc1ccc(N)cc1)[C@@]1(O)[C@H]2O[C@H](O)[C@@]1(C)O | 0.6
C/C=C(/C)C(=O)O[C@H]1C(C)=C2[C@H]([C@@H]1OC(=O)CCCCCCC)[C@@](C)(OC(C)=O)C[C@H](OC(=O)CCCCCCCN)[C@@]1(O)[C@H]2O[C@H](O)[C@@]1(C)O | 0.059
C/C=C(/C)C(=O)O[C@H]1C(C)=C2[C@H]([C@@H]1OC(=O)CCCCCCC)[C@@](C)(OC(C)=O)C[C@H](OC(=O)CCCCCCCCCCCNC(=O)[C@H](C)N)[C@@]1(O)[C@H]2O[C@H](O)[C@@]1(C)O | 0.833
C/C=C(\C)C(=O)O[C@H]1C(C)=C2[C@H]([C@@H]1OC(=O)CCCCCCC)[C@@](C)(OC(C)=O)C[C@H](OC(=O)CCC)[C@@]1(O)[C@H]2OC(=O)[C@@]1(C)OC(C)=O | 0.4
C/C=C(/C)C(=O)O[C@H]1C(C)=C2[C@H]([C@@H]1OC(=O)CCCCCCC)[C@@](C)(OC(C)=O)C[C@H](OC(=O)CCCCCC(=O)Nc1ccc(C)c(N)c1)[C@@]1(O)[C@H]2O[C@H](O)[C@@]1(C)O | 0.22
C/C=C(/C)C(=O)O[C@H]1C(C)=C2[C@H]([C@@H]1OC(=O)CCCCC)[C@@](C)(OC(C)=O)C[C@H](OC(=O)CCC)[C@@]1(O)[C@H]2O[C@H](OCC)[C@@]1(C)O | 0.85
C/C=C(/C)C(=O)O[C@H]1C(C)=C2[C@H]([C@@H]1OC(=O)CCCCC)[C@@](C)(OC(C)=O)C[C@H](OC(=O)CCC)[C@@]1(O)[C@H]2O[C@H]2OCO[C@]21C | 0.06
C/C=C(/C)C(=O)O[C@H]1C(C)=C2[C@H]([C@@H]1OC(=O)CCCCC)[C@@](C)(OC(C)=O)C[C@H](OC(=O)CCC)[C@@]1(O)[C@H]2O[C@H]2O[C@H](OCC)O[C@]21C | 0.4
C/C=C(/C)C(=O)O[C@H]1C(C)=C2[C@H]([C@@H]1OC(=O)CCCCC)[C@@](C)(OC(C)=O)C[C@H](OC(=O)CCC)[C@@]1(O)[C@H]2O[C@@H](OCC)[C@@]1(C)O | 0.52
C/C=C(/C)C(=O)O[C@H]1C(C)=C2[C@H]([C@@H]1OC(=O)CCCCCCC)[C@@](C)(OC(C)=O)C[C@H](OC(=O)/C=C/c1ccc(N)cc1)[C@@]1(O)[C@H]2O[C@H](O)[C@@]1(C)O | 0.59
C/C=C(/C)C(=O)O[C@H]1C(C)=C2[C@H]([C@@H]1OC(=O)CCCCCCC)[C@@](C)(OC(C)=O)C[C@@H](OC(=O)CCC)[C@@]1(O)[C@H]2OC(=O)[C@@]1(C)O | 0.0003
C/C=C(/C)C(=O)O[C@H]1C(C)=C2[C@H]([C@@H]1OC(=O)CCCCCCC)[C@@](C)(OC(C)=O)C[C@H](OC(=O)CCC)[C@@]1(O)[C@H]2O[C@H]2O[C@]21C | 0.186
C/C=C(/C)C(=O)O[C@H]1C(C)=C2[C@H]([C@@H]1OC(=O)CCCCCCC)[C@@](C)(OC(C)=O)C[C@H](OC(=O)CCC)[C@@]1(O)[C@H]2OC(=O)[C@@]1(C)O (stereo in doubt; form 2) | 0.67
C/C=C(/C)C(=O)O[C@H]1C(C)=C2[C@H]([C@@H]1OC(=O)CCCCC)[C@@](C)(OC(C)=O)C[C@H](OC(=O)CCC)[C@@]1(O)[C@H]2O[C@H]2O[C@@H](OCC)O[C@]21C | 0.02
